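Grown in 96-well plates, cells were treated for 48 hours with each compound at five concentrations. Insufficient inhibition: endpoint recorded as highest concentration tested. GI50 is the concentration that inhibits growth by half.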 Activity calls are given as the source filed them. Cut-off read from the data, not from the text of the source: active = GI50 up to about 1.1 µM and inactive = higher.
What was measured:
Experiment in all cases: inhibition of tumour cell growth, NCI panel, 48 h
SNB-75 = test system: SNB-75
SK-MEL-2 = test system: SK-MEL-2
U-251 = test system: U-251
HCT-15 = test system: HCT-15
SK-MEL-28 = test system: SK-MEL-28
DU-145 = test system: DU-145
CAKI-1 = test system: CAKI-1
SW-620 = test system: SW-620
SK-OV-3 = test system: SK-OV-3
OVCAR-3 = test system: OVCAR-3
KM12 = test system: KM12
NCI-H23 = test system: NCI-H23
MDA-MB-435 = test system: MDA-MB-435
LOX IMVI = test system: LOX IMVI
HOP-62 = test system: HOP-62
OVCAR-4 = test system: OVCAR-4
SF-295 = test system: SF-295
MDA-MB-231 = test system: MDA-MB-231
SNB-19 = test system: SNB-19
T47D = test system: T47D
MOLT-4 = test system: MOLT-4
K562 = test system: K562
NCI-H226 = test system: NCI-H226
RXF 393 = test system: RXF 393
NCI-H460 = test system: NCI-H460
HT-29 = test system: HT-29
M14 = test system: M14
MDA-N = test system: MDA-N
TK-10 = test system: TK-10
BT-549 = test system: BT-549
COLO 205 = test system: COLO 205
ACHN = test system: ACHN
SN12C = test system: SN12C
HCC 2998 = test system: HCC 2998
A549 = test system: A549
UACC-62 = test system: UACC-62
NCI-H522 = test system: NCI-H522
OVCAR-5 = test system: OVCAR-5
SF-268 = test system: SF-268
PC-3 = test system: PC-3
A498 = test system: A498
IGROV-1 = test system: IGROV-1
786-0 = test system: 786-0
Malme-3M = test system: Malme-3M
NCI/ADR-RES = test system: NCI/ADR-RES
HCT-116 = test system: HCT-116
CCRF-CEM = test system: CCRF-CEM
UACC-257 = test system: UACC-257
UO-31 = test system: UO-31
Hs-578T = test system: Hs-578T
SK-MEL-5 = test system: SK-MEL-5
RPMI-8226 = test system: RPMI-8226
OVCAR-8 = test system: OVCAR-8
MCF7 = test system: MCF7
EKVX = test system: EKVX
HOP-92 = test system: HOP-92
HL-60 = test system: HL-60
SR = test system: SR
SF-539 = test system: SF-539

CCOC(=O)c1[nH]c2nc(SC)nc(Nc3ccccc3Cl)c2c1N
GI50 (SNB-75): 16.2 µM (inactive)
GI50 (SK-MEL-2): 29 µM (inactive)
GI50 (U-251): 13.9 µM (inactive)
GI50 (HCT-15): 35.3 µM
GI50 (SK-MEL-28): 31.3 µM (inactive)
GI50 (DU-145): 23.2 µM (inactive)
GI50 (CAKI-1): 25.5 µM (inactive)
GI50 (SW-620): 27.2 µM (inactive)
GI50 (SK-OV-3): 21.4 µM (inactive)
GI50 (OVCAR-3): 20.7 µM (inactive)
GI50 (KM12): 31.3 µM (inactive)
GI50 (NCI-H23): 19.2 µM (inactive)
GI50 (MDA-MB-435): 31.6 µM (inactive)
GI50 (LOX IMVI): 11.8 µM (inactive)
GI50 (HOP-62): 18.3 µM (inactive)
GI50 (OVCAR-4): 14.6 µM (inactive)
GI50 (SF-295): 21 µM (inactive)
GI50 (MDA-MB-231): 16.6 µM (inactive)
GI50 (SNB-19): 17.5 µM (inactive)
GI50 (T47D): 13.1 µM (inactive)
GI50 (MOLT-4): 8.55 µM (inactive)
GI50 (K562): 13.9 µM (inactive)
GI50 (NCI-H226): 15.3 µM (inactive)
GI50 (RXF 393): 12.4 µM (inactive)
GI50 (NCI-H460): 11.6 µM (inactive)
GI50 (HT-29): 11.7 µM (inactive)
GI50 (M14): 37.8 µM (inactive)
GI50 (MDA-N): 30.5 µM (inactive)
GI50 (TK-10): 22.5 µM (inactive)
GI50 (BT-549): 20 µM (inactive)
GI50 (COLO 205): 28.9 µM (inactive)
GI50 (ACHN): 18.3 µM (inactive)
GI50 (SN12C): 36.2 µM (inactive)
GI50 (HCC 2998): 27.4 µM (inactive)
GI50 (A549): 13.2 µM (inactive)
GI50 (UACC-62): 16.6 µM (inactive)
GI50 (NCI-H522): 16.8 µM (inactive)
GI50 (OVCAR-5): 19.6 µM (inactive)
GI50 (SF-268): 19.8 µM (inactive)
GI50 (PC-3): 15.7 µM (inactive)
GI50 (A498): 12.6 µM (inactive)
GI50 (IGROV-1): 26.9 µM (inactive)
GI50 (786-0): 20.2 µM (inactive)
GI50 (Malme-3M): 24.3 µM (inactive)
GI50 (NCI/ADR-RES): 18.8 µM (inactive)
GI50 (HCT-116): 15.6 µM (inactive)
GI50 (CCRF-CEM): 15.3 µM (inactive)
GI50 (UACC-257): 33.6 µM (inactive)
GI50 (UO-31): 15.7 µM (inactive)
GI50 (Hs-578T): 20.1 µM (inactive)
GI50 (SK-MEL-5): 6.21 µM (inactive)
GI50 (RPMI-8226): 15.2 µM (inactive)
GI50 (OVCAR-8): 16 µM (inactive)

C=CCn1c(=O)c(-c2ccccc2)c(O)c2ccccc21
GI50 (SNB-75): 94 µM (inactive)
GI50 (U-251): > 100 µM (inactive)
GI50 (HCT-15): > 100 µM
GI50 (MCF7): > 100 µM (inactive)
GI50 (SK-MEL-28): > 100 µM (inactive)
GI50 (DU-145): > 100 µM (inactive)
GI50 (CAKI-1): > 100 µM (inactive)
GI50 (SW-620): > 100 µM (inactive)
GI50 (OVCAR-3): > 100 µM (inactive)
GI50 (KM12): > 100 µM (inactive)
GI50 (NCI-H23): > 100 µM (inactive)
GI50 (MDA-MB-435): > 100 µM (inactive)
GI50 (LOX IMVI): > 100 µM (inactive)
GI50 (HOP-62): > 100 µM (inactive)
GI50 (OVCAR-4): > 100 µM (inactive)
GI50 (SF-295): > 100 µM (inactive)
GI50 (MDA-MB-231): > 100 µM (inactive)
GI50 (SNB-19): > 100 µM (inactive)
GI50 (MOLT-4): > 100 µM (inactive)
GI50 (K562): > 100 µM (inactive)
GI50 (NCI-H226): > 100 µM (inactive)
GI50 (RXF 393): > 100 µM (inactive)
GI50 (EKVX): > 100 µM (inactive)
GI50 (NCI-H460): > 100 µM (inactive)
GI50 (HT-29): > 100 µM (inactive)
GI50 (HOP-92): > 100 µM (inactive)
GI50 (MDA-N): > 100 µM (inactive)
GI50 (TK-10): > 100 µM (inactive)
GI50 (BT-549): > 100 µM (inactive)
GI50 (COLO 205): > 100 µM (inactive)
GI50 (HL-60): > 100 µM (inactive)
GI50 (ACHN): > 100 µM (inactive)
GI50 (SN12C): > 100 µM (inactive)
GI50 (HCC 2998): > 100 µM (inactive)
GI50 (A549): > 100 µM (inactive)
GI50 (NCI-H522): > 100 µM (inactive)
GI50 (OVCAR-5): > 100 µM (inactive)
GI50 (SF-268): > 100 µM (inactive)
GI50 (PC-3): > 100 µM (inactive)
GI50 (SR): > 100 µM (inactive)
GI50 (A498): > 100 µM (inactive)
GI50 (IGROV-1): > 100 µM (inactive)
GI50 (786-0): > 100 µM (inactive)
GI50 (Malme-3M): > 100 µM (inactive)
GI50 (NCI/ADR-RES): > 100 µM (inactive)
GI50 (HCT-116): > 100 µM (inactive)
GI50 (CCRF-CEM): > 100 µM (inactive)
GI50 (UACC-257): > 100 µM (inactive)
GI50 (SF-539): > 100 µM (inactive)
GI50 (UO-31): > 100 µM (inactive)
GI50 (Hs-578T): > 100 µM (inactive)
GI50 (SK-MEL-5): > 100 µM (inactive)
GI50 (RPMI-8226): > 100 µM (inactive)
GI50 (OVCAR-8): > 100 µM (inactive)

CCOC(=O)C(NC(=O)Nc1ccc(Cl)cc1)(OC)C(F)(F)F (centres undefined)
GI50 (SNB-75): > 100 µM (inactive)
GI50 (SK-MEL-2): 0.973 µM (active)
GI50 (U-251): 52.5 µM (inactive)
GI50 (HCT-15): 0.248 µM
GI50 (SK-MEL-28): > 100 µM (inactive)
GI50 (CAKI-1): 74.3 µM (inactive)
GI50 (SW-620): 64.4 µM (inactive)
GI50 (SK-OV-3): > 100 µM (inactive)
GI50 (NCI-H23): 37.9 µM (inactive)
GI50 (MDA-MB-435): 3.25 µM (inactive)
GI50 (LOX IMVI): > 100 µM (inactive)
GI50 (SNB-19): 22.2 µM (inactive)
GI50 (T47D): 70 µM (inactive)
GI50 (K562): 0.832 µM (active)
GI50 (RXF 393): > 100 µM (inactive)
GI50 (EKVX): 56.5 µM (inactive)
GI50 (HT-29): > 100 µM (inactive)
GI50 (M14): 8.24 µM (inactive)
GI50 (MDA-N): 3.12 µM (inactive)
GI50 (TK-10): 30.7 µM (inactive)
GI50 (BT-549): > 100 µM (inactive)
GI50 (COLO 205): 12.2 µM (inactive)
GI50 (HL-60): 9.68 µM (inactive)
GI50 (ACHN): 0.757 µM (active)
GI50 (SN12C): 41 µM (inactive)
GI50 (HCC 2998): 7.45 µM (inactive)
GI50 (A549): 8.49 µM (inactive)
GI50 (OVCAR-5): 21.5 µM (inactive)
GI50 (SF-268): 27.7 µM (inactive)
GI50 (PC-3): 32.3 µM (inactive)
GI50 (SR): 9.23 µM (inactive)
GI50 (A498): 14 µM (inactive)
GI50 (IGROV-1): > 100 µM (inactive)
GI50 (786-0): 13.8 µM (inactive)
GI50 (NCI/ADR-RES): 4.66 µM (inactive)
GI50 (HCT-116): 1.94 µM (inactive)
GI50 (UACC-257): 21.9 µM (inactive)
GI50 (SF-539): 19.7 µM (inactive)
GI50 (UO-31): 5.75 µM (inactive)
GI50 (Hs-578T): 42.4 µM (inactive)
GI50 (SK-MEL-5): 15.1 µM (inactive)
GI50 (OVCAR-8): 49.3 µM (inactive)

Source: ChEMBL document CHEMBL1201862, “PubChem BioAssay data set” (2004)
